± gives the expanded uncertainty stated by the source.
Assay: xn = mol fraction of the nth substance listed
Settings: 101 kPa, Liquid; for speed of sound: Sing-around technique in a fixed-path interferometer

CN(CCO)CCO [N-methyldiethanolamine] + CCO
Settings	mass density, 288.15 K [kg/m3]	mass density, 293.15 K [kg/m3]	mass density, 298.15 K [kg/m3]	speed of sound, 288.15 K [m/s]	speed of sound, 293.15 K [m/s]	speed of sound, 298.15 K [m/s]
x1 = 0.0049	797.34 ± 3.1	793.08 ± 3.1	788.79 ± 3.1	1183.1 ± 3.6	1166 ± 3.6	1149.2 ± 3.7
x1 = 0.0253	810.93 ± 2.5	806.7 ± 2.5	802.07 ± 2.5	1201.7 ± 3.5	1184.9 ± 3.6	1168 ± 3.6
x1 = 0.0524	826.23 ± 2.4	822.03 ± 2.4	817.31 ± 2.4	1222.5 ± 3.3	1205.9 ± 3.4	1189.3 ± 3.4
x1 = 0.102	855.32 ± 2.2	850.46 ± 2.2	845.79 ± 2.2	1260.9 ± 3.1	1244.5 ± 3.2	1228.1 ± 3.3
x1 = 0.1629	883.86 ± 1.8	879 ± 1.8	874.36 ± 1.8	1301 ± 2.9	1286 ± 2.9	1272.9 ± 3
x1 = 0.2474	916.48 ± 1.4	911.75 ± 1.4	907.18 ± 1.4	1353 ± 2.6	1338 ± 2.6	1325 ± 2.6
x1 = 0.3713	952.15 ± 1.2	947.5 ± 1.2	942.7 ± 1.2	1415 ± 2.4	1399.7 ± 2.4	1384.6 ± 2.4
x1 = 0.4806	977.2 ± 1.1	973.1 ± 1.1	968.28 ± 1.1	1460 ± 2.3	1444 ± 2.3	1429.2 ± 2.3
x1 = 0.5506	991.1 ± 0.94	986.7 ± 0.93	982.08 ± 0.94	1486 ± 2.2	1470 ± 2.2	1457 ± 2.1
x1 = 0.7035	1013.7 ± 0.99	1009.24 ± 0.98	1005.04 ± 0.97	1536 ± 2.2	1520 ± 2.2	1500 ± 2.2
x1 = 0.7916	1024.1 ± 1	1019.88 ± 1	1015.3 ± 1	1557 ± 2.2	1542 ± 2.2	1522 ± 2.2
x1 = 0.8688	1032.69 ± 1.1	1028.4 ± 1.1	1024.2 ± 1.1	1573.2 ± 2.2	1557.7 ± 2.2	1538 ± 2.2
x1 = 0.9415	1038.68 ± 1.1	1034.96 ± 1.1	1031.19 ± 1.1	1588.4 ± 2.3	1572.9 ± 2.3	1553 ± 2.3
x1 = 1	1044.32 ± 1.2	1040.6 ± 1.2	1036.83 ± 1.1	1598.8 ± 2.2	1583.1 ± 2.2	1564 ± 2.2

— the NIST ThermoML archive (doi:10.1021/je700245a)
